Assay results published in patent US20160340656A1, “PEPTIDES DERIVED FROM GSE 24.2 FOR TREATING DISEASES CAUSED BY OXIDATIVE STRESS AND DAMAGE TO DNA” (CONSEJO SUPERIOR DE INVESTIGACIONES CIENTÍFICAS (CSIC), priority 2013, published 2016).

How the values were obtained:
[1] = tested on: AT2078 cells of patients with ataxia telangiectasia; experiment: Damage to DNA in AT2078 cells: histone H2AX Ser139 foci after expression of GSE4 or SGSE4; assay type: cell-based, human; details: 200 cells
Description: FIG. 14. Determination of damage to DNA in AT cells after transfecting peptides GSE4 and SGSE4: AT2078 AT cells were infected with a lentiviral vector expressing GSE4, SGSE4 or a GFP empty vector and 24 hours later were fixed for processing and hybridised with an antibody against phosphorylated histone H2AX (Ser139). Control C-1787 cells were used as the negative control. Next they were hybridised with a fluorescein-labelled antibody and were stained with DAPI to locate the nuclei.
As the peptide denominated GSE4 was the smallest sized of the peptides with ability to inhibit damage to DNA, we studied if another peptide with a similar sequence localised in the sequence of peptide GSE24.2 had the same activity or if that activity was specific to GSE4. Peptide SGSE4 (SEQ ID No. 15) is similar to GSE4 in sequence (amino acids LDPK/LDKP that constitute consensus sequences for pseudouridine synthases) and size and is found in the TRUBII domain of dyskerin. Cell lines AT2078 of patients with ataxia telangiectasia were used for this test. Cell line C-1787 was used as the control cell line. The cells were infected with the bicistronic lentiviral vector pCMV-GFP-GSE4, SGSE4 or GFP. After 48 hours of infection the cells were fixed with formaldehyde and then permeabilized by treating them with Triton X-100. The damage to DNA was estimated by studying the signal after hybridisation of the cells with an antibody against histone H2AX Ser139 and subsequent hybridisation with an antibody bound to fluorescein. The number of foci with stain for histone H2AX per nucleus was determined by confocal microscopy in a total of 200 cells and the data represented as a percentage of cells with a specific number of foci.

[2] = tested on: HeLa cells; experiment: Internalisation of fluorescein-labelled peptides, confocal fluorescence microscopy; assay type: cell-based
Description: (§1) FIG. 21. Transfection of peptides GSE4 and GSE4NLS1 in HeLa cells. Peptides GSE4 and GSE4NLS1 (SEQ ID No. 7) labelled with fluorescein and obtained by chemical synthesis were transfected into HeLa cells using the Proteojuice reagent and viewed in a confocal fluorescence microscope at 9, 24 and 48 hours after transfection.
as §1, with “22. Internalisation” for “21. Transfection”, “added to the culture medium of” for “transfected into”, “cells” for “cells using the Proteojuice reagent”
Given the ability of sequence NLS1 to contribute to the activity of GSE24.2, a synthetic peptide into which this sequence was placed in the 3′ region of peptide GSE4 was constructed as this was the peptide for which the greatest telomerase activation was obtained. The peptides obtained by chemical synthesis were labelled with fluorescein to facilitate their visualisation in a fluorescence microscope. Two experiments were performed in parallel, in one the peptides were transfected using Proteojuice reagent and in the other they were added directly to the culture medium. […] An important difference observed was that when the peptides were added directly to the culture medium, the peptide entered into a higher number of cells than when Proteojuice was used. The reagent provided greater effectiveness for internalisation but into a small number of cells.

[3] = tested on: promoter of c-myc in 293T cells; experiment: c-myc promoter luciferase reporter activity; assay type: cell-based; details: 24 hours, relative to GSE24.2
Description: FIG. 20. Activity of constructions GSE24.2NLS1-3 and GSE24.2NLS2-3 on the c-myc promoter. The expression vectors for the constructions GSE24.2, GSE24.2N LS1-3 and GSE24.2NLS2-3 were transfected (using lipofectamine) into 293T cells together with the reporter gene of the promoter of c-myc, pXP1, and 24 hours later the luciferase activity was measured using a commercial kit. The values are expressed as relative activity, considering 1 as the value of luciferase with the empty expression vector pCDNA3myc.
With the aim of evaluating biological activity of the constructions containing the signals NLS1-3 and N LS2-3, they were transfected into 293T cells together with the reporter gene of the promoter of c-myc and the luciferase activity activated by both constructions GSE24.2NLS1-3 and GSE24.2NLS2-3 was evaluated in relation to GSE24.2.

How did the “AT cells in which overall damage to DNA is corrected” value [1] turn out when “HSGTLDPKVTG (listed as Homo sapiens) [SGSE4, reference compound]” was run?
Its value is “not able to correct the damage to DNA”.

How did the entry into cells ([2]; peptide simply added to the culture medium) turn out when “GFINLDKPSNPKRKR (GSE4NLS1-3; listed as Homo sapiens)” was run?
The entry into cells was “entered the cells”.

And the entry into cells ([2]; transfected using Proteojuice reagent)?
The entry into cells was “entered the cells”.

“GFINLDKPSNPSSHEVVAWIRRILRVEKTGHSGTLDPKVTGCLIVCIERATRLVKKRKR (GSE24.2NLS1-3; listed as Homo sapiens) [GSE24.2 with NLS1 in the 3′ position]” was tested. Which “activation of expression of the promoter of c-myc (luciferase)” value [3] did it give?
Its value is “more effectively than GSE24.2”.

B1: GFINLDKPSNPSSHEVVAWIRRILRVEKTGHSGTLDPKVTGCLIVCIERATRLVKKKEKKKSK (peptide, listed as Homo sapiens)
chain: GFINLDKPSNPSSHEVVAWIRRILRVEKTGHSGTLDPKVTGCLIVCIERATRLVKKKEKKKSK
modifications: GSE24.2NLS2-3
notes: GSE24.2 with NLS2 in the 3′ position
For B1, which “activation of expression of the promoter of c-myc (luciferase)” value [3] is on record?
The value was “more effectively than GSE24.2”.
